Measurements published in US20120283334A1, “Treatment of Viral Infections” (Biocopea, Ltd., priority 2009, published 2012).

Tested on: influenza (A/PR/8/34), H1N1 virus
Test: In vivo mouse influenza challenge, bupropion metabolite by oral gavage
Conditions: H1N1-infected mice
From the text: 6) In Vivo Mouse Studies Using Bupropion Metabolite
The bupropion metabolite known as 2-(1,1-dimethylethyl)amino-1-(3-chlorophenyl)propan-1-ol (BC1053), in 10% ethanol, was delivered orally to influenza infected mice, as follows.
Two groups of n=12 C57BLK/6 barrier reared female mice (6-8 weeks old, and between 15-18 g in weight) were intranasally challenged with a lethal dose of influenza (A/PR/8/34). On day 3 post-challenge, the animals received the following treatments: group A received an oral gavage of 100 μl of 10% Ethanol in water; and group B received an oral gavage of 100 μl containing 540 μg of bupropion metabolite in 10% Ethanol in water.
The animals were weighed and monitored daily for morbidity and mortality up to day 6, when all animals were culled. Average weight loss per group and survival were calculated.
As described above, mice were infected with a H1N1 virus which was allowed to become established in each of the subjects. Each test mouse was then treated with 2-(1,1-dimethylethyl)amino-1-(3-chlorophenyl)propan-1-ol (i.e. a bupropion metabolite, BC1053) with a single dose on day 3 after infection with the virus. In the control mice, no metabolite was administered. The weight loss of both treated and untreated mice was then determined.

Structure (SMILES): CC(NC(C)(C)C)C(O)c1cccc(Cl)c1 (centres unmarked) [BC1053, 2-(1,1-dimethylethyl)amino-1-(3-chlorophenyl)propan-1-ol]
- lower reduction in weight loss than the control mice (single oral dose 540 μg on day 3, FIG. 4): ≥ 30%
- higher survival rate than the control, untreated mice (single oral dose 540 μg on day 3, FIG. 5): about 30%
